Laboratory results from the supplement of paper PMC10307832.

Legend:
Test in all cases: relative viability (nuclei count vs DMSO), 5 days (fraction); higher = more cells survive
IDH-C35 + Vorinostat = compound: Cc1ccccc1C(C(=O)NC1CCCCC1)N(C(=O)Cn1ccnc1C)c1cccc(F)c1 [IDH-C35] + O=C(CCCCCCC(=O)Nc1ccccc1)NO [Vorinostat] (partner 1 µM)
Outline: (§1)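 Nuclei were stained with Hoechst during a one-step fixation (final 0.05% Triton X-100, 1% formaldehyde, 1 ug/ml Hoechst) carried out 5 days after dosing, then counted on 4× images. The cells, lung cancer lines in 1536-well plates, had been dosed by pin tool the day after seeding with one drug alone or a fixed anchor-drug dose plus five library-drug doses (not always all listed) in √10 steps. Relative viability is the nuclei count in treated wells divided by that in vehicle wells, and each value is the median of duplicate plates.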

[1] = compound: CC1=C(C(=NN1)C)CC2=C(C3=C(S2)N(C(=O)N(C3=O)C)CC(C)C)C(=O)N4C[C@@H](CO4)O + Cc1nc(NC(=O)N2CCC[C@H]2C(N)=O)sc1-c1ccnc(C(C)(C)C(F)(F)F)c1 [Alpelisib] (partner 2 µM)
Outline: as §1

[2] = compound: CC1=C(C(=NN1)C)CC2=C(C3=C(S2)N(C(=O)N(C3=O)C)CC(C)C)C(=O)N4C[C@@H](CO4)O + CC(=O)Nc1cccc(-n2c(=O)n(C3CC3)c(=O)c3c(Nc4ccc(I)cc4F)n(C)c(=O)c(C)c32)c1 [Trametinib] (partner 0.02 µM)
Outline: as §1

[3] = compound: CC1=C(C(=NN1)C)CC2=C(C3=C(S2)N(C(=O)N(C3=O)C)CC(C)C)C(=O)N4C[C@@H](CO4)O + N=C(N)NC(=N)NCCc1ccccc1 [Phenformin] (partner 250 µM)
Outline: as §1

Cell Line | relative viability (IDH-C35 + Vorinostat; first compound 0.08 µM) | relative viability (IDH-C35 + Vorinostat; first compound 0.253 µM) | relative viability (IDH-C35 + Vorinostat; first compound 0.8 µM) | relative viability (IDH-C35 + Vorinostat; first compound 2.53 µM) | relative viability (IDH-C35 + Vorinostat; first compound 8 µM) | relative viability ([1]; first compound 0.0025 µM) | relative viability ([1]; first compound 0.007906 µM) | relative viability ([1]; first compound 0.025 µM) | relative viability ([1]; first compound 0.07906 µM) | relative viability ([1]; first compound 0.25 µM) | relative viability ([2]; first compound 0.0025 µM) | relative viability ([2]; first compound 0.007906 µM) | relative viability ([2]; first compound 0.025 µM) | relative viability ([2]; first compound 0.07906 µM) | relative viability ([2]; first compound 0.25 µM) | relative viability ([3]; first compound 0.0025 µM) | relative viability ([3]; first compound 0.007906 µM) | relative viability ([3]; first compound 0.025 µM) | relative viability ([3]; first compound 0.07906 µM) | relative viability ([3]; first compound 0.25 µM)
201T | 1 | 0.942 | 0.946 | 0.641 | 0.951 | 1.04 | 0.995 | 0.996 | 0.971 | 0.949 | 0.715 | 0.708 | 0.713 | 0.739 | 0.694 | 0.468 | 0.383 | 0.426 | 0.472 | 0.426
A549 | – | – | – | – | – | 0.838 | 0.96 | 0.744 | 0.758 | 0.961 | – | – | – | – | – | 0.116 | 0.0979 | 0.151 | 0.161 | 0.168
A-427 | 0.868 | 0.796 | 0.848 | 0.901 | 0.856 | 1.02 | 1.21 | 1.08 | 1.03 | 1.07 | 0.748 | 0.754 | 0.809 | 0.754 | 0.763 | 0.301 | 0.264 | 0.24 | 0.375 | 0.349
ABC-1 | 1.12 | 1.07 | 0.941 | 1.23 | 1.3 | 1.04 | 1.07 | 1.14 | 1.01 | 0.944 | – | – | – | – | – | 0.18 | 0.174 | 0.173 | 0.186 | 0.214
BEN | 0.576 | 0.608 | 0.618 | 0.568 | 0.593 | 0.976 | 1.01 | 0.826 | 0.858 | 0.987 | 0.955 | 0.927 | 0.922 | 0.862 | 0.826 | 0.223 | 0.166 | 0.221 | 0.18 | 0.206
CAL-12T | 0.69 | 0.947 | 0.815 | 0.882 | 0.791 | 1.27 | 1.3 | 1.03 | 1.06 | 1.58 | 0.402 | 0.464 | 0.372 | 0.379 | 0.405 | 0.551 | 0.627 | 0.544 | 0.629 | 0.575
COR-L23 | 0.503 | 0.421 | 0.404 | 0.408 | 0.409 | 0.782 | 0.709 | 0.59 | 0.759 | 0.739 | 0.662 | 0.74 | 0.452 | 0.547 | 0.712 | 0.397 | 0.395 | 0.342 | 0.355 | 0.344
COR-L 105 | 0.932 | 0.959 | 0.722 | 0.803 | 0.688 | 1.03 | 0.896 | 1.12 | 1.01 | 0.999 | 0.48 | 0.443 | 0.511 | 0.466 | 0.406 | 0.34 | 0.324 | 0.231 | 0.279 | 0.244
Calu-6 | – | – | – | – | – | 1.3 | 0.898 | 0.892 | 0.895 | 1.09 | – | – | – | – | – | – | – | – | – | –
ChaGo-K-1 | 0.758 | 0.814 | 0.8 | 0.586 | 0.68 | – | – | – | – | – | 0.94 | 0.871 | 0.889 | 0.918 | 0.916 | 0.467 | 0.451 | 0.407 | 0.447 | 0.47
EBC-1 | – | – | – | – | – | 0.973 | 0.973 | 0.765 | 0.822 | 0.814 | – | – | – | – | – | – | – | – | – | –
EKVX | 0.876 | 0.678 | 0.769 | 0.738 | 0.698 | 0.906 | 1.07 | 0.835 | 0.923 | 0.734 | 0.397 | 0.339 | 0.353 | 0.246 | 0.372 | 0.241 | 0.224 | 0.233 | 0.243 | 0.227
EMC-BAC-2 | 0.474 | 0.464 | 0.47 | 0.528 | 0.542 | 0.809 | 0.854 | 0.721 | 0.691 | 0.814 | 0.902 | 0.904 | 0.938 | 0.892 | 0.986 | 0.538 | 0.548 | 0.518 | 0.478 | 0.601
EPLC-272H | 0.314 | 0.406 | 0.515 | 0.494 | 0.403 | 0.99 | 0.943 | 0.99 | 0.899 | 0.829 | 0.317 | 0.236 | 0.31 | 0.295 | 0.352 | 0.362 | 0.272 | 0.281 | 0.298 | 0.361
H3255 | 0.8 | 0.925 | 0.875 | 0.73 | 0.868 | 0.768 | 0.676 | 0.697 | 0.759 | 0.736 | 0.602 | 0.693 | 0.671 | 0.617 | 0.681 | 0.338 | 0.368 | 0.364 | 0.389 | 0.39
HARA | 0.624 | 0.436 | 0.517 | – | 0.525 | 1.01 | 0.922 | 0.837 | 0.768 | 0.801 | 1.14 | 0.991 | 0.759 | 0.662 | 0.782 | 0.365 | 0.378 | 0.309 | 0.234 | 0.246
